Here are results for five compounds from patent US20240270821A1, “GIP/GLP1/GCG TRI-RECEPTOR AGONISTS AND USES THEREOF” (priority 2023, published 2024).

As usually defined, the EC50 is the concentration giving half of the maximal effect.

Molecules are shown by their SMILES. Starred links: 1 amine or outer side, 2 acyl side, 3 side chain; linkers in the order of their positions; H or OH if unused. Non-standard residues stand in square brackets, D forms with d. Residues, ends and D or L forms follow the SMILES beside them. Groups on a side chain read outwards from the residue. *: point of attachment. C18 diacid = O=C(O)CCCCCCCCCCCCCCCCC(=O)*; αMePhe(2-F) = C[C@](N)(Cc1ccccc1F)C(=O)O; γGlu = O=C(O)[C@H](CCC(=O)[*:2])N[*:1]; 3Pal = N[C@@H](Cc1cccnc1)C(=O)O; 4Pal = N[C@@H](Cc1ccncc1)C(=O)O; αMeL = CC(C)C[C@](C)(N)C(=O)O; αMeS = C[C@](N)(CO)C(=O)O; Orn = NCCC[C@H](N)C(=O)O; AEEA = NCCOCCOCC(=O)O; Aib = CC(C)(N)C(=O)O

Assay type in all cases: cell-based
Assay [1] has as its target hGcgR (Homo sapiens, UniProt P47871). Kind of assay: Functional cAMP activation in the presence of 0.1% casein (no HSA). The settings on record: read-out: Relative cAMP EC50, hGcgR.
Assay [2] addresses human GcgR (Homo sapiens, UniProt P47871). Nature of the assay: Functional cAMP activity in the presence of 1% HSA. The settings on record: read-out: cAMP Rel EC50, hGcgR.
The target of assay [3] is T1, hGLP-1R (Homo sapiens, UniProt P43220). Kind of assay: Functional cAMP activation in the presence of 0.1% casein (no HSA). The settings on record: read-out: Relative cAMP EC50, hGLP-1R.
For assay [4], the target named is T2, hGIPR (Homo sapiens, UniProt P48546).
T2 sequence (P48546 22-466): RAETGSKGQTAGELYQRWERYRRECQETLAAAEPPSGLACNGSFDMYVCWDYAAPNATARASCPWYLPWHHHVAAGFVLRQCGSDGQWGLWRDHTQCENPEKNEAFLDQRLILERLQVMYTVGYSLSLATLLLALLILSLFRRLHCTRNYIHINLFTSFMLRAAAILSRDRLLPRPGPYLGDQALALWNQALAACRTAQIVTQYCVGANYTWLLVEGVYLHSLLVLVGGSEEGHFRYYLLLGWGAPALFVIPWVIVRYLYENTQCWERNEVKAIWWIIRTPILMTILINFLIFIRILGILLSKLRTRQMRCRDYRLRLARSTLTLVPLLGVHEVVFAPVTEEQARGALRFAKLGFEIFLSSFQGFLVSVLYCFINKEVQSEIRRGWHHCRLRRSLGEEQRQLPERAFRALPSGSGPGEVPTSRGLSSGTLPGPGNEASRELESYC
Nature of the assay: Functional cAMP activity in the presence of 1% HSA. The settings on record: read-out: cAMP Rel EC50, hGIPR.

The target of assay [5] is T2, hGIPR. Nature of the assay: Functional cAMP activation in the presence of 0.1% casein (no HSA). The settings on record: read-out: Relative cAMP EC50, hGIPR.
Assay [6] concerns the target T1, hGLP-1R. Nature of the assay: Functional cAMP activity in the presence of 1% HSA. The settings on record: read-out: cAMP Rel EC50, hGLP-1R.
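For Relative cAMP EC50, hGIPR in this document: intracellular cAMP rise after 30 min at 37 °C read by HTRF against a standard curve, scaled between buffer alone (0%) and top control ligand concentration (100%), four-parameter fit.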
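For Relative cAMP EC50, hGLP-1R in this document: intracellular cAMP rise after 30 min at 37 °C read by HTRF, normalized between buffer only (0%) and maximal control ligand (100%), four-parameter variable-slope fit.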
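For Relative cAMP EC50, hGcgR in this document: intracellular cAMP rise after 30 min at 37 °C, read by HTRF against a cAMP standard curve, scaled from buffer only (0%) to maximal control ligand response (100%).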

T1 sequence (P43220 24-463): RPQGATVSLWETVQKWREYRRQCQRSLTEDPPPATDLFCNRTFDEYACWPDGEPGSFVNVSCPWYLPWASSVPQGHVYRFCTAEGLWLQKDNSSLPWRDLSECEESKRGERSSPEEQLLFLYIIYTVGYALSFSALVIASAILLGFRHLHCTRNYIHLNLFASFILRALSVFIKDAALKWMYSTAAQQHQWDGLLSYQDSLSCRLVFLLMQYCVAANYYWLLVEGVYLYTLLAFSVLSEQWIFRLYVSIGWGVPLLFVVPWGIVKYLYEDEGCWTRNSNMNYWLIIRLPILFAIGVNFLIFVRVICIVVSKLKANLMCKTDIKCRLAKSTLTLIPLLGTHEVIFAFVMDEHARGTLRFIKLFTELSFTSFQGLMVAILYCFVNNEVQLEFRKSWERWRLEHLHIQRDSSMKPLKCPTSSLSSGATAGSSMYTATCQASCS
Sequence of human GcgR (P47871 26-477): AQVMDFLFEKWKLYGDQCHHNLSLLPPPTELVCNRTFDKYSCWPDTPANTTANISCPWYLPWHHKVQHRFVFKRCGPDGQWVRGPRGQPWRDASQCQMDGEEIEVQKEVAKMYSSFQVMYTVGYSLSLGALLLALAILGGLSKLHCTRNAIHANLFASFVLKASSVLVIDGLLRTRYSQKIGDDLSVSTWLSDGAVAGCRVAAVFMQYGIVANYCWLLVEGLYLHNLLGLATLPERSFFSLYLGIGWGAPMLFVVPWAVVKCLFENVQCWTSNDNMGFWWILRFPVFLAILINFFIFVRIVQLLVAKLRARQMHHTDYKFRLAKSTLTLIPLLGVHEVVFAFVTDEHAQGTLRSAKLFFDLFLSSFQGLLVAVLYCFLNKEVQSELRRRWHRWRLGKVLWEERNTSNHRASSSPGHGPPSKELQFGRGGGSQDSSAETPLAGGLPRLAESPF
Sequence of hGcgR (P47871 26-477): as above

In the case of `CC[C@H](C)[C@H](NC(=O)[C@H](Cc1ccccc1)NC(=O)[C@H](C)NC(=O)C(C)(C)NC(=O)[C@H](CCC(N)=O)NC(=O)[C@H](C)NC(=O)[C@H](CCCCNC(=O)COCCOCCNC(=O)CC[C@H](NC(=O)CCCCCCCCCCCCCCCCC(=O)O)C(=O)O)NC(=O)[C@H](CCCCN)NC(=O)[C@H](CC(=O)O)NC(=O)[C@H](CC(C)C)NC(=O)[C@H](CC(C)C)NC(=O)[C@@H](NC(=O)[C@](C)(CO)NC(=O)[C@H](Cc1cccnc1)NC(=O)[C@H](CC(=O)O)NC(=O)[C@H](CO)NC(=O)[C@@H](NC(=O)[C@](C)(Cc1ccccc1F)NC(=O)[C@@H](NC(=O)CNC(=O)[C@H](CCC(N)=O)NC(=O)C(C)(C)NC(=O)[C@@H](N)Cc1ccc(O)cc1)[C@@H](C)O)[C@@H](C)O)[C@@H](C)CC)C(=O)N[C@@H](CCC(=O)O)C(=O)N[C@@H](Cc1ccc(O)cc1)C(=O)N[C@@H](CC(C)C)C(=O)N[C@@H](CCC(=O)O)C(=O)N[C@@H](CCC(=O)O)C(=O)NCC(=O)NCC(=O)N1CCC[C@H]1C(=O)N[C@@H](CO)C(=O)N[C@@H](CO)C(=O)NCC(=O)N[C@@H](C)C(=O)N1CCC[C@H]1C(=O)N1CCC[C@H]1C(=O)N1CCC[C@H]1C(=O)N[C@@H](CCC(=O)O)C(N)=O` [Example 465] (H-Y[Aib]QGT[αMePhe(2-F)]TSD[3Pal][αMeS]ILLDKK([AEEA-γGlu-C18 diacid])AQ[Aib]AFIEYLEEGGPSSGAPPPE-NH2), the EC50 in assay [1] was 1.5 nM; in assay [2], 233 nM; in assay [3], 0.575 nM; in assay [4], 44.6 nM; in assay [5] it was 0.148 nM; in assay [6] it was 56.3 nM.

Regarding `CC[C@H](C)[C@H](NC(=O)[C@H](Cc1ccccc1)NC(=O)[C@H](C)NC(=O)C(C)(C)NC(=O)[C@H](CCC(N)=O)NC(=O)[C@H](C)NC(=O)[C@H](CCCCNC(=O)COCCOCCNC(=O)CC[C@H](NC(=O)CCCCCCCCCCCCCCCCC(=O)O)C(=O)O)NC(=O)[C@H](CCCN)NC(=O)[C@H](CC(=O)O)NC(=O)[C@H](CC(C)C)NC(=O)[C@](C)(CC(C)C)NC(=O)[C@@H](NC(=O)[C@](C)(CO)NC(=O)[C@H](Cc1ccncc1)NC(=O)[C@H](CC(=O)O)NC(=O)[C@H](CO)NC(=O)[C@@H](NC(=O)[C@](C)(Cc1ccccc1F)NC(=O)[C@@H](NC(=O)CNC(=O)[C@H](CCC(N)=O)NC(=O)C(C)(C)NC(=O)[C@@H](N)Cc1c[nH]cn1)[C@@H](C)O)[C@@H](C)O)[C@@H](C)CC)C(=O)N[C@H](CCC(=O)O)C(=O)N[C@@H](Cc1ccc(O)cc1)C(=O)N[C@@H](CC(C)C)C(=O)N[C@@H](CC(C)C)C(=O)N[C@@H](CCC(=O)O)C(=O)NCC(=O)NCC(=O)N1CCC[C@H]1C(=O)N[C@@H](CO)C(=O)N[C@@H](CO)C(=O)NCC(=O)N[C@@H](CCC(=O)O)C(=O)N1CCC[C@H]1C(=O)N1CCC[C@H]1C(=O)N1CCC[C@H]1C(=O)N[C@@H](CCC(=O)O)C(N)=O` [Example 466] (H-H[Aib]QGT[αMePhe(2-F)]TSD[4Pal][αMeS]I[αMeL]LD[Orn]K([AEEA-γGlu-C18 diacid])AQ[Aib]AFI[dE]YLLEGGPSSGEPPPE-NH2; N-terminus assumed), the EC50 in assay [1] turned out to be 5.84 nM; in assay [2], 348 nM; in assay [3], 0.207 nM; in assay [4], 5.65 nM; in assay [5], 0.0466 nM; in assay [6], 13.3 nM.

As to `CC[C@H](C)[C@H](NC(=O)[C@H](Cc1ccccc1)NC(=O)[C@H](C)NC(=O)C(C)(C)NC(=O)[C@H](CCC(N)=O)NC(=O)[C@H](C)NC(=O)[C@H](CCCCNC(=O)COCCOCCNC(=O)CC[C@H](NC(=O)CCCCCCCCCCCCCCCCC(=O)O)C(=O)O)NC(=O)[C@H](CCCCN)NC(=O)[C@H](CC(=O)O)NC(=O)[C@H](CC(C)C)NC(=O)[C@H](CC(C)C)NC(=O)[C@H](CCC(=O)O)NC(=O)[C@](C)(CO)NC(=O)[C@H](Cc1ccc(O)cc1)NC(=O)[C@H](CC(=O)O)NC(=O)[C@H](CO)NC(=O)[C@@H](NC(=O)[C@](C)(Cc1ccccc1F)NC(=O)[C@@H](NC(=O)CNC(=O)[C@H](CCC(N)=O)NC(=O)C(C)(C)NC(=O)[C@@H](N)Cc1ccc(O)cc1)[C@@H](C)O)[C@@H](C)O)C(=O)N[C@@H](CCC(=O)O)C(=O)N[C@@H](Cc1ccc(O)cc1)C(=O)N[C@@H](CC(C)C)C(=O)N[C@@H](CCC(=O)O)C(=O)N[C@@H](CCC(=O)O)C(=O)NCC(=O)NCC(=O)N1CCC[C@H]1C(=O)N[C@@H](CO)C(=O)N[C@@H](CO)C(=O)NCC(=O)N[C@@H](C)C(=O)N1CCC[C@H]1C(=O)N1CCC[C@H]1C(=O)N1CCC[C@H]1C(=O)N[C@@H](CCC(=O)O)C(N)=O` [Example 467] (H-Y[Aib]QGT[αMePhe(2-F)]TSDY[αMeS]ELLDKK([AEEA-γGlu-C18 diacid])AQ[Aib]AFIEYLEEGGPSSGAPPPE-NH2), the concentration giving a half-maximal response (EC50) turned out to be 9.34 nM in assay [1]; 850 nM in assay [2]; 0.358 nM in assay [3]; 10.7 nM in assay [4]; 0.0855 nM in assay [5]; 36.4 nM in assay [6].

For `CC[C@H](C)[C@H](NC(=O)[C@H](Cc1ccccc1)NC(=O)[C@H](C)NC(=O)C(C)(C)NC(=O)[C@H](CCC(N)=O)NC(=O)[C@H](C)NC(=O)[C@H](CCCCNC(=O)COCCOCCNC(=O)COCCOCCNC(=O)CC[C@H](NC(=O)CCCCCCCCCCCCCCCCC(=O)O)C(=O)O)NC(=O)[C@H](CCCCN)NC(=O)[C@H](CC(=O)O)NC(=O)[C@H](CC(C)C)NC(=O)[C@H](CC(C)C)NC(=O)[C@@H](NC(=O)[C@](C)(CO)NC(=O)[C@H](Cc1ccc(O)cc1)NC(=O)[C@H](CC(=O)O)NC(=O)[C@H](CO)NC(=O)[C@@H](NC(=O)[C@](C)(Cc1ccccc1F)NC(=O)[C@@H](NC(=O)CNC(=O)[C@H](CCC(N)=O)NC(=O)C(C)(C)NC(=O)[C@@H](N)Cc1ccc(O)cc1)[C@@H](C)O)[C@@H](C)O)[C@@H](C)CC)C(=O)N[C@@H](CCC(=O)O)C(=O)N[C@@H](Cc1ccc(O)cc1)C(=O)N[C@@H](CC(C)C)C(=O)N[C@@H](CCC(=O)O)C(=O)N[C@@H](CCC(=O)O)C(=O)NCC(=O)NCC(=O)N1CCC[C@H]1C(=O)N[C@@H](CO)C(=O)N[C@@H](CO)C(=O)NCC(=O)N[C@@H](C)C(=O)N1CCC[C@H]1C(=O)N1CCC[C@H]1C(=O)N1CCC[C@H]1C(=O)N[C@@H](CCC(=O)O)C(N)=O` [Example 468] (H-Y[Aib]QGT[αMePhe(2-F)]TSDY[αMeS]ILLDKK([AEEA-AEEA-γGlu-C18 diacid])AQ[Aib]AFIEYLEEGGPSSGAPPPE-NH2), the EC50 in assay [1] was 1.95 nM; in assay [2] it was 195 nM; in assay [3], 0.466 nM; in assay [4], 4.76 nM; in assay [5], 0.0222 nM; in assay [6], 30.7 nM.

On to `CC[C@H](C)[C@H](NC(=O)[C@H](Cc1ccccc1)NC(=O)[C@H](C)NC(=O)C(C)(C)NC(=O)[C@H](CCC(N)=O)NC(=O)[C@H](C)NC(=O)[C@H](CCCCNC(=O)COCCOCCNC(=O)COCCOCCNC(=O)CC[C@H](NC(=O)CCCCCCCCCCCCCCCCC(=O)O)C(=O)O)NC(=O)[C@H](CCCCN)NC(=O)[C@H](CC(=O)O)NC(=O)[C@H](CC(C)C)NC(=O)[C@H](CC(C)C)NC(=O)[C@@H](NC(=O)[C@](C)(CO)NC(=O)[C@H](Cc1ccc(O)cc1)NC(=O)[C@H](CC(=O)O)NC(=O)[C@H](CO)NC(=O)[C@@H](NC(=O)[C@](C)(Cc1ccccc1F)NC(=O)[C@@H](NC(=O)CNC(=O)[C@H](CCC(N)=O)NC(=O)C(C)(C)NC(=O)[C@@H](N)Cc1ccc(O)cc1)[C@@H](C)O)[C@@H](C)O)[C@@H](C)CC)C(=O)N[C@@H](CCC(=O)O)C(=O)N[C@@H](Cc1ccc(O)cc1)C(=O)N[C@@H](CC(C)C)C(=O)N[C@@H](CCC(=O)O)C(=O)N[C@@H](CCC(=O)O)C(=O)NCC(=O)NCC(=O)N1CCC[C@H]1C(=O)N[C@@H](CO)C(=O)N[C@@H](CO)C(=O)NCC(=O)N[C@@H](CCC(=O)O)C(=O)N1CCC[C@H]1C(=O)N1CCC[C@H]1C(=O)N1CCC[C@H]1C(=O)N[C@@H](CCC(=O)O)C(N)=O` [Example 469] (H-Y[Aib]QGT[αMePhe(2-F)]TSDY[αMeS]ILLDKK([AEEA-AEEA-γGlu-C18 diacid])AQ[Aib]AFIEYLEEGGPSSGEPPPE-NH2), for which the EC50 in assay [1] is 1.34 nM; in assay [2], 155 nM; in assay [3], 0.562 nM; in assay [4], 4.24 nM; in assay [5] it was 0.031 nM; in assay [6] it was 61.7 nM.
